{
  "source": "patent US20260049078A1",
  "about": "“DIFLUORO- AND TRIFLUORO-ACETYL HYDRAZIDES AS SELECTIVE HDAC6 INHIBITORS” (ITALFARMACO S.P.A., priority 2022, published 2026)",
  "key": {"zHDAC6-CD2 wt": {"target": "zHDAC6-CD2 wt (Danio rerio (Zebrafish) (Brachydanio rerio), UniProt F8W4B7)", "sequence (F8W4B7 entry or part of it del 1-439/del 799-1081 limits assumed)": "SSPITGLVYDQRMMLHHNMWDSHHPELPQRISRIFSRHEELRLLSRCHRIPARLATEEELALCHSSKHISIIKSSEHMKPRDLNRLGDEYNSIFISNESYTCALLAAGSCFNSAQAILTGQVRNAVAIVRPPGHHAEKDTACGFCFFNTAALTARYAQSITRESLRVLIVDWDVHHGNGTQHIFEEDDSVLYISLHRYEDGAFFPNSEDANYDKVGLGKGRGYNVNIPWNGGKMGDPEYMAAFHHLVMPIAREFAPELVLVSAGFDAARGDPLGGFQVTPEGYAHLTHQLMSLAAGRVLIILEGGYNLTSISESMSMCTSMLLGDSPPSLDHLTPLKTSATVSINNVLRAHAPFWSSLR", "experiment": "Isolation of long-lived/tight complex (spin column chromatography with LC-HRMS)", "type": "binding", "conditions": "zHDAC6-CD2 wt 1 μM, compound 5 μM, 6 hours, Bio-Spin P-6", "experimental": "Rapid chromatography on spin columns coupled to LC-HRMS was used to attempt the isolation of long-lived/tight complexes between HDAC6 and examples 1 and 1-A. zHDAC6-CD2 wt (1 μM) was incubated with 1 (5 μM) or 1-A (also 5 μM) as described before for 6 hours. An aliquot (60 μL) was loaded on a Bio-Spin P-6 Gel Column (Bio-Rad) that had been equilibrated with assay buffer in order to separate the HDAC6-inhibitors complexes from free compounds. After centrifugation to elute the initial fraction containing most of the enzyme, ten 200 μL aliquots were applied and eluted by centrifugation to collect the low molecular weight (free) compounds. Aliquots of the fractions were subjected to LC-HRMS analysis (as described above) for identification and quantitation of 1 and its derivatives."}, "recombinant human HDAC6": {"target": "recombinant human HDAC6 (Homo sapiens (Human), UniProt Q9UBN7)", "sequence (Q9UBN7 whole entry)": "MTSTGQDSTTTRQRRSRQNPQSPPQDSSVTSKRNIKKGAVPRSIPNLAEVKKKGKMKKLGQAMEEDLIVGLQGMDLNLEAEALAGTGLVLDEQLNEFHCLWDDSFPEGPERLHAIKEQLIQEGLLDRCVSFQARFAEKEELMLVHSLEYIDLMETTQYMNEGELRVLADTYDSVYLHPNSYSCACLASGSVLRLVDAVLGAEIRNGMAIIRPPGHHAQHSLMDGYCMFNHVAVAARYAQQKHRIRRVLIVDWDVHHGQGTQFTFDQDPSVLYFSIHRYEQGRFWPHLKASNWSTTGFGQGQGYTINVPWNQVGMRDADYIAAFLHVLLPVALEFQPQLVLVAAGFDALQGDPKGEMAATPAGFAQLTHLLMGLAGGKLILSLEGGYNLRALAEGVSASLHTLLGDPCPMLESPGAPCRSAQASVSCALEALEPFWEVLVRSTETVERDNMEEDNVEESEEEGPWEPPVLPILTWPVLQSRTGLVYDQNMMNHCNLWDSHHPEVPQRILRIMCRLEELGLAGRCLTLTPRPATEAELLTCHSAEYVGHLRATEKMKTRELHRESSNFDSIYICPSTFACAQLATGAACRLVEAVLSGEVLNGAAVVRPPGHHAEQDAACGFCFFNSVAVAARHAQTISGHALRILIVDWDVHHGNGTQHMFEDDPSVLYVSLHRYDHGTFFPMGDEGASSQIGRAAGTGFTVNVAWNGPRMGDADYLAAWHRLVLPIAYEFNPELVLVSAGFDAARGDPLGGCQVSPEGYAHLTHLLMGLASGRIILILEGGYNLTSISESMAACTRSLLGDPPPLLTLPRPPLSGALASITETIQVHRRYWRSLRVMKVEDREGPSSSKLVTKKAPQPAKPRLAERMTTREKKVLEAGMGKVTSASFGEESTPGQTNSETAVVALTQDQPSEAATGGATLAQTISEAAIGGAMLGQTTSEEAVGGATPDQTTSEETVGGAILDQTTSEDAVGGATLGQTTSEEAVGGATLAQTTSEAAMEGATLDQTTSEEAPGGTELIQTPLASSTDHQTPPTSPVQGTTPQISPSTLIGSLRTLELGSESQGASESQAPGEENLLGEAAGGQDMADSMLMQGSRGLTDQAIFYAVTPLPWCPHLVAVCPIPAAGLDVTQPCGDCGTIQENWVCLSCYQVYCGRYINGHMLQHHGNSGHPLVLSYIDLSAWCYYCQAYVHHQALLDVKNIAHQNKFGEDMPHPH", "experiment": "Enzyme inhibitory activity assay on HDAC6", "type": "biochemical", "conditions": "30 minutes preincubation at 25° C.", "experimental": "(§1) For each test compound, 100× concentrated DMSO solutions at 8 doses were prepared and then diluted in assay buffer (25 mM Tris-HCl, pH 8, 130 mM NaCl, 0.05% Tween-20, 10% Glycerol) to obtain 5× concentrated solutions in relation to the final concentrations (typical final concentration range—6.4-200000 nM or 0.18-50000 nM, final DMSO content—1%). Then 10 μL solution of each test compound concentration were placed on a 96-well plate in triplicate and 15 μL of 3.33× concentrated enzyme solution in the assay buffer containing 3.33× concentrated BSA (final BSA concentration 1 mg/mL) and, in case of HDAC6, 3.33× concentrated TCEP (final TCEP concentration—200 μM) were added to each well. After a period of preincubation at 25° C. (30 minutes for HDAC6 and 120 minutes for HDAC1), 25 μL of solution containing the substrate were added. As substrate, FLUOR DE LYS® deacetylase substrate (Enzo Life Sciences, cat: BML-KI104, FdL), FLUOR DE LYS®-Green substrate (Enzo Life Sciences, cat: BML-KI572, FdL_G) or Boc-Lys(Tfa)-AMC (Bachem, cat: 4060676.005, Tfal)—2× concentrated solution in assay buffer were used. Following a reaction period (30 minutes at 25° C.), 50 μL of the development solution consisting of concentrate FLUOR DE LYS® developer I (Enzo Life Sciences, ca: BML-KI105), diluted 200 times in buffer (50 mM Tris-HCl, pH 8, 137 mM NaCl, 2.7 mM KCl, 1 mM MgCl2) plus 2 μM TSA was added and, after 25 minutes at room temperature in the dark, using the Victor 1420 Multilabel Counter Perkin Elmer Wallac instrument, the fluorescence reading was carried out (excitation/emission: 485/535 nM—Fluor de Lys Green, 355/460 nM—Tfal, Fluor de Lys).\n(§2) Enzymatic activity on recombinant human HDAC6 and HDAC1 was evaluated (Table 2) for each synthesized compound."}, "recombinant human HDAC1": {"target": "recombinant human HDAC1 (Homo sapiens (Human), UniProt Q13547)", "sequence (Q13547 whole entry)": "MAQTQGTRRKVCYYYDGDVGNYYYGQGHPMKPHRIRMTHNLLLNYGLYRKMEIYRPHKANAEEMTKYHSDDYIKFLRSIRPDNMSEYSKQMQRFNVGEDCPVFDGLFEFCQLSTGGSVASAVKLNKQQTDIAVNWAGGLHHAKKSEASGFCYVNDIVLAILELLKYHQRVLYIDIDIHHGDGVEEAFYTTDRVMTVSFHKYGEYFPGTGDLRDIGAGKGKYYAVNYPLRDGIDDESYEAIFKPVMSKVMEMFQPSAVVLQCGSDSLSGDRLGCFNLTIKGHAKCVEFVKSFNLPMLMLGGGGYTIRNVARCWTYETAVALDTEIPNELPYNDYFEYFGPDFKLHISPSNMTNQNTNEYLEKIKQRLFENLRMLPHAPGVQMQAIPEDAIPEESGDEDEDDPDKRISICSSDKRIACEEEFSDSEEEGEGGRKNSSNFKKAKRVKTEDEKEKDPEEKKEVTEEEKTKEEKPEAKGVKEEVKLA", "experiment": "Enzyme inhibitory activity assay on HDAC1", "type": "biochemical", "conditions": "120 minutes preincubation at 25° C.", "experimental": "as §1, §2"}, "[1]": {"tested_on": "human B cell precursor leukemia 697", "experiment": "In vitro α-tubulin acetylation in 697 cell line", "type": "cell-based", "conditions": "Homo sapiens, B-cell, 16 h; read-out: TubAc 697 cells EC50", "experimental": "The in vitro α-tubulin acetylation was evaluated on human B cell precursor leukemia 697.\nThe 697 cells were maintained in RPMI Medium 1640 (Gibco, cat: 21875-034) supplemented with 10 mM HEPES (Gibco, cat: 15630-080), Pen-Strep (Penicillin 100 U/ml, Streptomycin 100 μg/ml, Gibco, cat: 15140-122) and 10% fetal bovine serum (Gibco, cat: 10270-106).\nThe cells were plated in 12-well plates (Costar, cat: 3512) at the density of 5.5×10^5 cells/ml.\nSerial dilutions of test compounds in DMSO were prepared using 20 mM stock solutions to obtain 8 doses 200× concentrated in respect to final doses (2.7-100000 nM). Then the DMSO solutions were diluted 10× in culture medium to obtain 20× concentrated solutions which were used for cells treatment (125 μl of medium solutions were added to 2.375 ml of cells suspension). The final DMSO content was set as 0.5%. The plates were incubated at 37° C., 5% CO2 for 16 hours.\nAt the end of the incubation period, the cells were harvested and centrifuged for 5 minutes at 200×g and washed with 0.9% NaCl at 4° C. The resulting pellet was treated for 30 minutes at 4° C. with 100 μl Complete Lysis-M buffer containing protease inhibitors (Complete Lysis-M Roche+Complete Tablets, Mini Easypack, cat: 4719956001) and phosphatase inhibitor cocktails (PhosStop Easypack, Roche, cat: 4906837001) and then centrifuged 10 minutes at 18213×g. The protein concentration in each supernatant was determined using BCA Protein Assay Kit (Pierce, cat: 23227). The samples were diluted in PBS 1× to obtain 2 μg/ml concentration and coated in MaxiSorp 96-well plates (Nunc, cat: 442404). The plates were incubated overnight at room temperature.\nPlates were washed twice with Wash Buffer (PBS 1×+0.005% tween 20) and saturated for 1 hour at room temperature with 300 μL of 1×PBS containing 10% FBS. After washing twice with Wash Buffer, the plates were incubated for 2 hours at room temperature in the presence of 100 μl/well either anti-acetylated-α-tubulin antibody (Monoclonal Anti-Tubulin, Acetylated antibody produced in mouse, Sigma-Aldrich, cat: T6793) or total anti-α-tubulin antibody (Monoclonal Anti-α-Tubulin produced in mouse, Sigma-Aldrich, cat: T6074) diluted 1:1000 in 1×PBS containing 10% FBS. Following 5 washing cycles with Wash Buffer the secondary antibody conjugated with the enzyme HRP (Goat anti-Mouse IgG, IgM, IgA (H+L), stock concentration 0.5 mg/ml, Thermo Fisher Scientific, cat: A10668), diluted 1:1000 in 1×PBS+10% FBS was added at the volume of 100 μl/well. After two hours of incubation at room temperature the plates were washed 4 times with Wash Buffer, then 100 μl/well of TMB substrate (TMB substrate kit, Thermo Fisher Scientific, cat: 34021) was added for 10 minutes at room temperature in the dark. The reaction was stopped by adding 50 μl of 2M H2SO4. The plates were read in BioTek Synergy H1 multimode microplate reader at a wavelength of 450 nm.\nThe measured absorbance was corrected by subtracting the mean of blank values (samples without the primary antibody). The absorbance ratios of acetyl to total tubulin assays were calculated and normalized to the reference compound (positive control) 4 parameter logistic curve, where 0% is the fitted bottom and 100% is the fitted top of the curve. The results are expressed as relative EC50."}, "SH-SY5Y cells": {"tested_on": "SH-SY5Y cells", "experiment": "In vitro α-tubulin acetylation in undifferentiated SH-SY5Y cells", "type": "cell-based", "conditions": "overnight, @1uM", "experimental": "SH-SY5Y cells (ATCC, cod. CRL-2266) are plated in optical optimized 96-well black plates (Perkin Elmer, cod. 6055302) at 5000 cells/well in 100 μl/well of growth medium (DMEM/F12 (1:1)+10 mM hepes+100 units/mL of penicillin+100 μg/mL of streptomycin+10% of inactivated Foetal calf serum (FCS, Hyclone)).\nAfter 24 h of seeding, cells are incubated overnight with the selected molecules at 0.1-1-10 μM. ACY1083 and Tubastatin A, at the same doses, are tested as positive controls of α-Tubulin acetylation, while untreated cells are incubated with 0.01% DMSO and indicated as CTRL DMSO.\nAt the end of the incubation, cells are fixed adding 100 μL/well of formaldehyde 8% in PBS (final formaldehyde concentration 4% in 200 μL/well) directly in the 100 μL/well of medium, for 30 min at RT. The fixing solution is carefully removed, and wells are washed twice with PBS for 10 min each. Fixed cells are kept in PBS at 4° C. until staining.\nThe day of the staining experiment, the fixed cells are incubated 60 min with the blocking buffer (PBS with 5% FCS+0.3% Triton™ X-100). While blocking, primary antibodies are prepared by diluting 1:200 the α-Tubulin Alexa Fluor 488 Conjugate (Cell Signaling, cod. 5063) antibody and 1:50 Acetyl-α-Tubulin Alexa Fluor 647 Conjugate (Cell Signaling, cod. 81502) antibody in the Antibody Dilution Buffer (PBS with 1% BSA+0.3% Triton™ X-100). Once the blocking solution is aspirated, the diluted primary antibodies are applied and incubated overnight at 4° C. The next day, cells are rinsed twice with PBS (10 min each), incubated 5 min with 300 nM DAPI in PBS, and then rinsed twice with PBS (10 min each). For each treatment, 3 wells are stained.\nImages of the stained cells are acquired by means of the IN Cell Analyzer 2500 HS Instrument, using: far red channel for Acetyl-α-Tubulin staining (exposure 0.02 sec), green channel for α-Tubulin staining (exposure 0.02 sec), and blue channel for DAPI (nuclei) staining. For each well, 10 images are acquired.\nImages of stained cells are analysed with the InCarta software (Molecular Devices) for obtaining fluorescence intensity considering whole cells. For each treatment, mean values of Cell intensity—Bckg (Cell), for both staining, are obtained using the InCarta raw data by FOV (Field of View). Results are expressed as fold increase of the ratio of acetylated tubulin and total tubulin towards control (CTRL DMSO)."}},
  "data": [
    {"molecule": "O=C(NNC(=O)C(F)F)c1ccc(Cn2cc(-c3ccc(NC4=NCCN4)cc3)nn2)cc1", "note": "[Compound 1, N′-(2,2-difluoroacetyl)-4-((4-(4-((4,5-dihydro-1H-imidazol-2-yl)amino)phenyl)-1H-1,2,3-triazol-1-yl)methyl)benzohydrazide]", "values": [
      {"measurement": "co-elution with the enzyme (fraction 1)", "setting": "zHDAC6-CD2 wt", "result": "co-elutes with the enzyme"}
    ]},
    {"molecule": "CC(c1ccc(-c2nnc(C(F)F)o2)cn1)n1cc(-c2ccc(N)nc2)nn1", "note": "(centres unmarked) [Compound 39-A]", "values": [
      {"measurement": "IC50", "setting": "recombinant human HDAC6", "result": 14, "unit": "nM"},
      {"measurement": "IC50", "setting": "recombinant human HDAC1", "result": "> 100000", "unit": "nM"},
      {"measurement": "EC50", "setting": "[1]", "result": 320, "unit": "nM"},
      {"measurement": "TubAc SH-SY5Y cells fold increase of the ratio of acetylated tubulin and total tubulin towards control", "setting": "SH-SY5Y cells", "result": 6.5, "unit": "fold"}
    ]}
  ]
}
